Data as given in EP2208725A1, “Novel specific inhibitors of ubiquitin specific protease 7, the pharmaceutical compositions thereof and their therapeutic applications” (Hybrigenics S.A., priority 2009, dated 2010).

What follows are molecules tested against T1, USP8 (Homo sapiens, UniProt P40818) (assay: USP8 activity assay (Ub-AMC)). Settings: 400 nM Ub-AMC, 1.36 nM enzyme; compounds tested from 200 µM to 91 nM; unit inferred; read-out: Inhibition of cysteine protease activities: USP8.
T1 construct: His (from pFastBac-HT vector); made in house; host or cells: Insect cells (Sf9 or High Five), baculovirus
T1 sequence (P40818 1-1118): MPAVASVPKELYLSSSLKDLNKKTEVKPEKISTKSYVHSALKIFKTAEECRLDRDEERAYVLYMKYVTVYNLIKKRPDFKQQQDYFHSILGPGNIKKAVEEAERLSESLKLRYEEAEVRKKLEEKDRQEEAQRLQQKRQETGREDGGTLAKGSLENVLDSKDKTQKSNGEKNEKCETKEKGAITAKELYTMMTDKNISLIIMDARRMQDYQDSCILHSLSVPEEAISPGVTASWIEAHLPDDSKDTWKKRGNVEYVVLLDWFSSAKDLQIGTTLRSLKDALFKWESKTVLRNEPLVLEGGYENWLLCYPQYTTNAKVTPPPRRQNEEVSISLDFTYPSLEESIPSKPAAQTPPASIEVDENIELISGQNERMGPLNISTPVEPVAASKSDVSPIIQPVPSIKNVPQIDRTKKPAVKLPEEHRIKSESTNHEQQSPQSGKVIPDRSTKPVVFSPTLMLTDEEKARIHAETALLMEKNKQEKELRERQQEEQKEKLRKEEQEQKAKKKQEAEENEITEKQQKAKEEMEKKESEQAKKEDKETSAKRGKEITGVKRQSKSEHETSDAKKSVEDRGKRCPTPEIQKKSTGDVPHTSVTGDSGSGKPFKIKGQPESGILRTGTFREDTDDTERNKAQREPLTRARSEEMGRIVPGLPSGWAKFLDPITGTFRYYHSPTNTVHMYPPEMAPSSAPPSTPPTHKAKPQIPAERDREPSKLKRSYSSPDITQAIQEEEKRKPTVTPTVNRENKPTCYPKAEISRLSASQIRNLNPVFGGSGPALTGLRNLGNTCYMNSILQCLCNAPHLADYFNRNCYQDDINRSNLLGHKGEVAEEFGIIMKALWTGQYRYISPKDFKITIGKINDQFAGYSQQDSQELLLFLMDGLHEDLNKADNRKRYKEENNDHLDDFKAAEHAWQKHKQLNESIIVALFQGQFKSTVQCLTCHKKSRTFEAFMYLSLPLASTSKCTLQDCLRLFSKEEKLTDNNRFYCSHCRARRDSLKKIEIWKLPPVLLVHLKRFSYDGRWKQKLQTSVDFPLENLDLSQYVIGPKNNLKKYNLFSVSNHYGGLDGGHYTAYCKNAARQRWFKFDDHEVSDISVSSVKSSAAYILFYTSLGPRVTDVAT
Format: biochemical
Text: The cDNA encoding USP8 was obtained by PCR amplification from placenta mRNA. USP8 cDNA was subcloned by PCR into a baculovirus expression vector (pFastBac-HT; Invitrogen). A cDNA encoding a mutated USP8 was generated by mutagenic PCR. The corresponding protein encodes a cysteine to alanine substitution at residue 786. The sequences were ascertained by sequencing of the entire open reading frame. Bacmids encoding […] were generated following DH10bac transposition. The corresponding bacmids were transfected into insect cells (Sf9). Viruses were recovered from culture supernatant and amplified twice. Insect cells (Sf9 or High Five; Invitrogen) were infected for 72 hours. Total cell lysates were harvested and lyzed in lysis buffer (Tris HCl 50 mM pH7.6; 0.75 % NP40; 500 mM NaCl; 10 % glycerol; 1 mM DTT; 10 mM imidazole; Protease Inhibitor Cocktail; AEBSF 20 µg.ml^-1; Aprotinin 10 µg.ml^-1). Proteins were affinity purified on metal affinity resins (Talon Metal affinity resin; BD Biosciences). Bound materials were extensively washed in wash buffer (50 mM Sodium Phosphate pH 7.0; 300 mM NaCl; 10 mM imidazole; 0.5% Triton X-1 00; 10% glycerol) and eluted from the resin in 250 mM imidazole-containing wash buffer. Proteins were dialyzed in dialysis buffer (Tris HCl pH 7.6 20 mM; NaCl 200 mM; DTT 1 mM; EDTA 1 mM; 10% Glycerol). Proteins purifications were analyzed on 4-12% NuPAGE (Invitrogen).
USP8 was diluted in USP buffer (50 mM Tris HCl; 0.5 mM EDTA; 5 mM DTT; 0.01% Triton X-100; Bovine Serum Albumin 0.05 mg.ml^-1 pH8.8). Compounds stocks (100 mM) were stored at -20°C in DMSO. Compounds were tested at different concentrations: from 200 µM to 91 nM.
Reactions were performed as duplicates in Black LJL 96 well plates (HE microplates; Molecular Devices; 20 µl final reaction volume). The substrate concentration for USP8 was 400 nM Ub-AMC (Boston Biochem). The concentration of the enzyme (USP8) in specificity assays was 1.36 nM. The concentrations were determined in order to perform specificity assays under initial velocities at fixed substrate concentration. Compounds were pre-incubated with enzymes for 30 minutes at 25°C. Reactions were initiated by addition of substrate to the plates containing the enzymes (+/- compounds) diluted in assay buffer. Reactions were incubated for 60 minutes at 37°C. Reactions were stopped by adding acetic acid (100 mM final). Readings were performed on a Pherastar Fluorescent Reader (BMG). λ Emission 380 nm : λ Excitation = 460 nm. Data (mean values +/- standard deviation) were analyzed as % of control (no compound) and plotted as percentage versus the Log of the compound concentration using GraphPad (Prism). Data were fitted to a sigmoidal model (variable slope).

Compound	IC50 [µM]
CC(=O)C1=C(O)C(=O)N(CCc2ccc(Cl)c(Cl)c2)C1c1ccc(Br)cc1 (stereo not shown) [Example 28, 4-acetyl-5-(4-bromo-phenyl)-1-[2-(3,4-dichloro-phenyl)-ethyl]-3-hydroxy-1,5-dihydro-pyrrol-2-one]	> 200
CC(=O)C1=C(O)C(=O)N(CCc2ccc(F)cc2)C1c1ccc(Br)cc1 (stereo not shown) [Example 33, 4-acetyl-5-(4-bromo-phenyl)-3-hydroxy-1-[2-(4-fluorophenyl)-ethyl]-1,5-dihydro-pyrrol-2-one]	> 200
CC(=O)C1=C(O)C(=O)N(CCc2ccc(Br)cc2)C1c1ccc(Br)cc1 (stereo not shown) [Example 26, 4-acetyl-5-(4-bromo-phenyl)-1-[2-(4-bromo-phenyl)-ethyl]-3-hydroxy-1,5-dihydro-pyrrol-2-one]	> 200
CC(=O)C1=C(O)C(=O)N(CCc2ccc(Cl)cc2)C1c1ccc(Br)cc1 (stereo not shown) [Example 25, 4-acetyl-5-(4-bromo-phenyl)-1-[2-(4-chloro-phenyl)-ethyl]-3-hydroxy-1,5-dihydro-pyrrol-2-one]	> 200
COc1ccc(CCN2C(=O)C(O)=C(C(C)=O)C2c2ccc(Br)cc2)cc1 (stereo not shown) [Example 32, 4-acetyl-5-(4-bromo-phenyl)-3-hydroxy-1-[2-(4-methoxyphenyl)-ethyl]-1,5-dihydro-pyrrol-2-one]	> 200
CC(=O)C1=C(O)C(=O)N(CCc2ccccc2)C1c1ccc(Br)c(Br)c1 (stereo not shown) [Example 41, 4-acetyl-5-(3,4-dibromo-phenyl)-3-hydroxy-1-phenethyl-1,5-dihydro-pyrrol-2-one]	> 200
COc1cccc(CCN2C(=O)C(O)=C(C(C)=O)C2c2ccc(Br)cc2)c1 (stereo not shown) [Example 30, 4-acetyl-5-(4-bromo-phenyl)-3-hydroxy-1-[2-(3-methoxyphenyl)-ethyl]-1,5-dihydro-pyrrol-2-one]	> 200
CCOc1ccc(CCN2C(=O)C(O)=C(C(C)=O)C2c2ccc(Br)cc2)cc1 (stereo not shown) [Example 34, 4-acetyl-5-(4-bromo-phenyl)-3-hydroxy-1-[2-(4-ethoxy-phenyl)-ethyl]-1,5-dihydro-pyrrol-2-one]	> 200
CC(=O)C1=C(O)C(=O)N(CCc2ccccc2)C1c1ccc2c(c1)OCO2 (stereo not shown) [Example 37, 4-acetyl-5-benzo[1,3]dioxol-5-yl-3-hydroxy-1-phenethyl-1,5-dihydro-pyrrol-2-one]	> 200

More lines, now with the values ahead:

IC50 [µM]	Compound
> 200	CC(=O)C1=C(O)C(=O)N(CCc2ccc(Cl)cc2)C1c1ccc(Cl)cc1 (stereo not shown) [Example 46, 4-Acetyl-5-(4-chlorophenyl)-1-[2-(4-chlorophenyl)-ethyl]-3-hydroxy-1,5-dihydro-pyrrol-2-one]
> 200	CC(=O)C1=C(O)C(=O)N(CCc2ccc(Br)cc2)C1c1ccc(Cl)cc1 (stereo not shown) [Example 45, 4-Acetyl-5-(4-chlorophenyl)-1-[2-(4-bromophenyl)-ethyl]-3-hydroxy-1,5-dihydro-pyrrol-2-one]
> 200	CC(=O)C1=C(O)C(=O)N(CCc2ccc(Cl)cc2Cl)C1c1ccc(Br)cc1 (stereo not shown) [Example 47, 4-Acetyl-5-(4-bromophenyl)-1-[2-(2,4-dichlorophenyl)-ethyl]-3-hydroxy-1,5-dihydro-pyrrol-2-one]
> 200	CC(=O)C1=C(O)C(=O)N(CCc2ccccc2)C1c1cccnc1Cl (stereo not shown) [Example 42, 4-acetyl-5-(2-chloro-pyridin-3-yl)-3-hydroxy-1-phenethyl-1,5-dihydro-pyrrol-2-one]
